Broadly, the IC50 is the concentration at which inhibition is half-maximal.

In assay [1] the test system is GABAergic IPSCs onto POMC neurons. Kind of assay: GABAergic inhibitory postsynaptic currents (IPSCs) recorded in POMC neurons of hypothalamic slices. The format is cell-based, mouse.
In assay [2] the test system is POMC neurons. Kind of assay: Whole cell recordings of membrane potential, currents and action potentials in EGFP-labeled POMC neurons of hypothalamic (ARC) slices. The format is cell-based, mouse.
A short description of assay [3]: Food intake after injection into the paraventricular nucleus (PVN) of fasted rats. In kind it is in vivo, rat. How it is done:
(§1) Animals: Male Wistar rats (200-250 g), 7-8 weeks old (Charles River Laboratories, United Kingdom) were maintained under controlled temperature (21-23° C.) and light conditions (lights on 07:00-19:00) with ad libitum access to water and food (RM1 diet; SDS Ltd., Witham, United Kingdom) except where stated. Arcuate and paraventricular nuclei cannulations and injections were performed as previously described (Glaum et al., Mol. Pharmacol. 50, 230-5, 1996; Lee et al., J. Physiol (Lond) 515, 439-52; 1999; Shiraishi et al., Nutrition 15, 576-9, 1999). Correct intranuclear cannula placement was confirmed histologically at the end of each study period (Glaum et al., Mol. Pharmacol. 50, 230-5, 1996; Lee et al., J. Physiol (Lond) 515, 439-52, 1999; Shiraishi et al., Nutrition 15, 576-9, 1999). All animal procedures were approved under the British Home Office Animals (Scientific Procedures) Act, 1986. All injection studies on fasting animals were performed in the early light-phase (0800-0900). All dark-phase feeding studies injections were performed just prior to lights off.

Assay [4] concerns NPY and α-MSH release from hypothalamic explants. The experiment in a line: Neuropeptide release from hypothalamic explants (RIA). In kind it is cell-based, rat. The note with it: 50 nM. How it is done:
Hypothalamic explants: Male Wistar rats were killed by decapitation and the whole brain immediately removed, mounted with the ventral surface uppermost and placed in a vibrating microtome (Biorad, Microfield Scientific Ltd., Devon, UK). A 1.7 mm slice was taken from the base of the brain to include the PVN and the ARC and immediately transferred to 1 ml of artificial CSF (aCSF) (Kim et al., J. Clin. Invest. 105, 1005-11, 2000) equilibrated with 95% O2 and 5% CO2 and maintained at 37° C. After an initial 2-hour equilibration period, with aCSF replaced every 60 minutes, the hypothalami were then incubated for 45 minutes in 600 μl aCSF (basal period) before being exposed to the Y2A […] in 600 μl aCSF. Finally, the viability of the tissue was verified by a 45 minute exposure to 56 mM KCL; isotonicity was maintained by substituting K^+ for Na^+.

The nature of assay [5]: Food intake after injection into the arcuate nucleus of fasted rats. In kind it is in vivo, rat. The note with it: rats fasted 24 hours. How it is done: as §1, with “Arcuate” for “Animals: Male Wistar rats (200-250 g), 7-8 weeks old (Charles River Laboratories, United Kingdom) were maintained under controlled temperature (21-23° C.) and light conditions (lights on 07:00-19:00) with ad libitum access to water and food (RM1 diet; SDS Ltd., Witham, United Kingdom) except where stated. Arcuate”

Assay [6] concerns the target NPY Y1 receptor (Homo sapiens, UniProt P25929). The experiment in a line: biochemical. The format is binding.
Assay [7] deals with T1, NPY Y5 receptor (Homo sapiens, UniProt Q15761).
T1 construct: host or cells: unnamed cell line expressing the receptor
T1 sequence (Q15761 1-445): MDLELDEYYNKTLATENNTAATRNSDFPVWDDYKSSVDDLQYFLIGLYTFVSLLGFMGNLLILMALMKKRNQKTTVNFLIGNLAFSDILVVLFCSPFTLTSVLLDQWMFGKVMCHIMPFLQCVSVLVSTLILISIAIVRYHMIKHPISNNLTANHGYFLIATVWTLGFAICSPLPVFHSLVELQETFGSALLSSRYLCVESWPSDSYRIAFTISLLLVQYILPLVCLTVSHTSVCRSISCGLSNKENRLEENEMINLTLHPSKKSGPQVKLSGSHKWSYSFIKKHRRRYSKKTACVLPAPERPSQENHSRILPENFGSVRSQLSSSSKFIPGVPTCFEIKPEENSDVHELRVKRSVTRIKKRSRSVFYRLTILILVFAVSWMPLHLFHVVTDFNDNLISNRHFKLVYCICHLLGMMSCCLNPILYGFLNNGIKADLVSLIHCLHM
Kind of assay: Receptor-binding studies on cell lines expressing NPY Y5 receptor.

In assay [8] the target is T2, NPY Y2 receptor (Homo sapiens, UniProt P49146).
T2 construct: host or cells: unnamed cell line expressing the receptor
T2 sequence (P49146 1-381): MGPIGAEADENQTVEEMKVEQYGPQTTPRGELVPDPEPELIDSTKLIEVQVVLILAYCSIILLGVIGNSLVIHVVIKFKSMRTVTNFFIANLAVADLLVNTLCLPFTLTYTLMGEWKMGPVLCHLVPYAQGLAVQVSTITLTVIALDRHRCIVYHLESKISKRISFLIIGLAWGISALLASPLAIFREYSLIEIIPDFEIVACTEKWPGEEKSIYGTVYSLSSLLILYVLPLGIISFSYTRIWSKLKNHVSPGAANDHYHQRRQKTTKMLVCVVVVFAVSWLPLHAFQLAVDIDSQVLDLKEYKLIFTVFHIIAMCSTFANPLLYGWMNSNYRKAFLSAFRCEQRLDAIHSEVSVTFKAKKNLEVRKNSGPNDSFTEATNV
Kind of assay: Receptor-binding studies on cell lines expressing NPY Y2 receptor.

Assay [9] deals with non-POMC neurons in the arcuate nucleus. The experiment in a line: Recordings from non-fluorescent (non-POMC) neurons in the arcuate nucleus. The format is cell-based, mouse. The note with it: 13 cells tested; hyperpolarized 5, depolarized 3.

Read-outs that look alike come from different tables or passages of the source.

NPY Y1 receptor, sequence (P25929 whole entry): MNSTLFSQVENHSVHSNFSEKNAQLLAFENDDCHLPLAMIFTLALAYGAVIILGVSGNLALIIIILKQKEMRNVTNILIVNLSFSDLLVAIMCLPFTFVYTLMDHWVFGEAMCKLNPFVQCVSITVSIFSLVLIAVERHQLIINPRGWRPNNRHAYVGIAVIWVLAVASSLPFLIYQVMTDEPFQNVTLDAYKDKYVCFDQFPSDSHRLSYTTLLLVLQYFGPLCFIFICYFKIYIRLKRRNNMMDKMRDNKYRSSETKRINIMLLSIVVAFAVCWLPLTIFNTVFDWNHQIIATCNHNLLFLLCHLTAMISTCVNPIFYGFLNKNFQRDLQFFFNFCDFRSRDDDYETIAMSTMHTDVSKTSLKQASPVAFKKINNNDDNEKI

Consider `NC1=N[C@H](O)[C@H]2[C@H]3O[C@]4(O)O[C@@H]([C@@H](O)[C@@]2(N1)[C@@H]4O)[C@]3(O)CO` [TTX, tetrodotoxin], for which the “effect on large amplitude IPSCs” value in assay [1] is reported as “abolished large IPSCs”.
As for “Ac-LRHYLNLLTRQRY-NH2 (C-terminus assumed) [Y2A, N-acetyl (Leu^28, Leu^31) NPY (24-36)]”, the “depolarization of POMC neurons” value in assay [2] (whole cell, PYY3-36 n=22, Y2A n=9) is on record as 8.7±1.8 mV. In addition, in assay [3] (100 fmol-1 nmol, rats fasted 24 hours), the “food intake after PVN injection” value is “no alteration of food intake”. Besides, in [3] (PVN, 0.1 nmol, n=8), the “food intake 2 hour post-injection” value was found to be 8.0 ± 0.6 g. Further, the “α-MSH release from hypothalamic explants” value in assay [4] (45 minutes (FIG. 8e)) is recorded as “concomitant increase in α-MSH release”. Moreover, the “NPY release from hypothalamic explants” value in assay [4] (45 minutes (FIG. 8d)) is “significantly decreased NPY release”. Further, the “food intake after intra-arcuate injection, dose dependence” value in [5] (100 fmol-1 nmol) is recorded as “inhibited food intake”. Also, the “chow ingested 2 hours post-injection” value in assay [5] (intra-arcuate, 0.1 μmol, n=8) is 6.2 ± 0.5 g. Besides, the “reduction of frequency of IPSCs onto POMC neurons” value in assay [1] was 44.4±9.3%.
Turning to “Ac-LRHYLNLLTRQRY-NH2 [Y2A, N-acetyl (Leu^28, Leu^31) NPY (24-36)]”, the IC50 in [6] was more than 5000 nM; in assay [7] it was more than 5000 nM; in [8] it was 1.3 ± 0.2 nM.
Take CTAP: the “effect on the current induced by Met-Enk in POMC cells” value in [2] is listed as “completely prevented the current induced by Met-Enk”.
For D-Trp^8-γMSH, the “frequency of action potentials” value in assay [2] (7 nM) is “decreased the frequency of action potentials”.
On to NPY, for which, in assay [1], the “IPSCs in the presence of tetrodotoxin (TTX)” value is on record as “still inhibited IPSCs” and the “decrease of frequency of GABAergic IPSCs” value stood at 55%. In addition, the “time to decrease of IPSC frequency” value in assay [1] (100 nM) was not above 3 min.
Consider met-enkephalin, for which, in [2] (30 μM), the “spontaneous action potential generation” value is “prevented spontaneous action potential generation” and the “time to hyperpolarization (rapid)” value lay in the range of 35 to 40 s. Also, the “reversal-potential of the inwardly-rectifying opioid current” value in assay [2] (6.5 mM K+ Krebs, n=3) is recorded as “approximately −60 mV”.
In the case of picrotoxin, the “effect on IPSCs” value in assay [1] (100 μM) is reported as “blocked all IPSCs”.

B1: leptin: leptin applied to identified POMC cells in slice preparations (protein, UniProt P41160 22-167, looked up)
Leptin: VPIQKVQDDTKTLIKTIVTRINDISHTQSVSAKQRVTGLDFIPGLHPILSLSKMDQTLAVYQQVLTSLPSQNVLQIANDLENLRDLLHLLAFSKSCSLPQTSGLQKPESLDGVLEASLYSTEVVALSRLQGSLQDILQQLDVSPEC
As to B1, the “reversal of the small inward current” value in assay [2] (100 nM) was “approximately −20 mV”. Further, the “mean±SEM depolarization” value in assay [2] (100 nM, n=45) was 9.7±1.2 mV. In addition, in assay [2] (0.1-100 nM), the time to depolarization lay in the range of 2 to 10 min. Moreover, the “depolarization of POMC cells” value in assay [2] (0.1-100 nM, 72 of 77 cells) is on record as 3-30 mV. In [2] (read-out: EC50 of concentration dependent depolarization of POMC cells), the EC50 was found to be 5.9 nM. Also, in [9], the “effect on adjacent non-fluorescent ARC cells” value is given as “no effect on 5 of 13 adjacent non-fluorescent cells tested”. Further, in assay [1], the “IPSCs in the presence of tetrodotoxin (TTX)” value is given as “still inhibited IPSCs”. Besides, the “decrease of frequency of GABAergic IPSCs” value in assay [1] (100 nM (leptin: 5 out of 15 cells; NPY: all 12 cells)) is reported as 25%.
